The test system of this experiment is P388 leukemia ip, CD2F1 mice, survival T/C. Put plainly: NCI In Vivo Anticancer Drug Screen. Data for tumor model P388 Leukemia (intraperitoneal) in CD2F1 (CDF1) mice. The following applies: endpoint: median survival time, higher = longer survival. In a few lines:
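Mice carrying the transplanted tumor received test compound or vehicle. Survival was recorded in each group, and the value is the treated-group measurement divided by that of the vehicle-treated control group.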

The mark [1] stands for this setting: dose: 50.0 mg/kg/injection, schedule: Q01DX009 (ip), vehicle: saline.
Setting [2] is: dose: 100.0 mg/kg/injection, schedule: Q01DX009 (ip), vehicle: saline.
Setting [3] is: dose: 200.0 mg/kg/injection, schedule: Q01DX009 (ip), vehicle: saline.
Setting [4] is: dose: 50.0 mg/kg/injection, schedule: Q01DX009 (ip), vehicle: Klucel (hydroxypropylcellulose) (HPC).
Where [5] appears, read: dose: 100.0 mg/kg/injection, schedule: Q01DX009 (ip), vehicle: Klucel (hydroxypropylcellulose) (HPC).
Setting [6] is: dose: 200.0 mg/kg/injection, schedule: Q01DX009 (ip), vehicle: Klucel (hydroxypropylcellulose) (HPC).
The mark [7] stands for this setting: dose: 100.0 mg/kg/injection, schedule: Q04DX003 (ip), vehicle: saline with Tween-80.
The mark [8] stands for this setting: dose: 12.5 mg/kg/injection, schedule: Q01DX009 (ip), vehicle: saline with Tween-80.
[9] abbreviates: dose: 25.0 mg/kg/injection, schedule: Q01DX009 (ip), vehicle: saline with Tween-80.
The mark [10] stands for this setting: dose: 50.0 mg/kg/injection, schedule: Q01DX009 (ip), vehicle: saline with Tween-80.
The mark [11] stands for this setting: dose: 60.0 mg/kg/injection, schedule: Q01DX005 (ip), vehicle: saline with Tween-80.
Setting [12] is: dose: 120.0 mg/kg/injection, schedule: Q01DX005 (ip), vehicle: saline with Tween-80.
Where [13] appears, read: dose: 240.0 mg/kg/injection, schedule: Q01DX005 (ip), vehicle: saline with Tween-80.

“And” between values parts separate entries of the source, which are not always exact repeats. Identical values can stand only once. Inconclusive results and toxic doses are left out.

Regarding `CCOC(=O)/C=C(/CC(=O)OCC)OCC`, the T/C by setting is: under setting [1], 100 % of control; under setting [2], 89 % of control; under setting [3], 90 % of control; (dose: 400.0 mg/kg/injection, schedule: Q01DX009 (ip), vehicle: saline) 101 % of control.
Take `C1=CC2C=CC1C2c1ccccc1` (stereo not given): the T/C is 108 % of control and 86 % of control under setting [1]; 105 % of control and 111 % of control under setting [2]; 116 % of control and 98 % of control under setting [3].
On to `NC(N)=NC(N)=NCCS(=O)(=O)O`, for which the T/C by setting is: (dose: 50.0 mg/kg/injection, schedule: Q01DX005 (ip), vehicle: saline) 110 % of control; (dose: 100.0 mg/kg/injection, schedule: Q01DX005 (ip), vehicle: saline) 110 % of control; (dose: 200.0 mg/kg/injection, schedule: Q01DX005 (ip), vehicle: saline) 117 % of control.
As to `COc1ccc2[nH]c3cc4c(=O)c5cc(OC)ccc5[nH]c4cc3c(=O)c2c1`, the T/C by setting is: under setting [4], 96 % of control; under setting [5], 100 % of control; under setting [6], 100 % of control.
For the compound `O=C(O)CCS(=O)(=O)CCC(=O)O`, the T/C reads like this: under setting [7], 100 % of control; (dose: 200.0 mg/kg/injection, schedule: Q04DX003 (ip), vehicle: saline with Tween-80) 104 % of control.
Turning to `COC(C(N)=O)(c1ccccc1)C(F)(F)F` (stereo not given), the T/C (dose: 100.0 mg/kg/injection, schedule: Q01DX009 (ip), vehicle: saline with Tween-80) was 90 % of control; the T/C (dose: 200.0 mg/kg/injection, schedule: Q01DX009 (ip), vehicle: saline with Tween-80) is 100 % of control; the T/C (dose: 400.0 mg/kg/injection, schedule: Q01DX009 (ip), vehicle: saline with Tween-80) is 90 % of control.
Consider `ClC1CN2CCC1CC2` (stereo not given), for which the T/C is, setting by setting: under setting [8], 91 % of control; under setting [9], 95 % of control; under setting [10], 100 % of control.
On to `c1ccc2ccccc2c1`, for which the T/C (dose: 50.0 mg/kg/injection, schedule: Q01DX009 (ip), vehicle: other) is 100 % of control; the T/C (dose: 100.0 mg/kg/injection, schedule: Q01DX009 (ip), vehicle: other) was 104 % of control; the T/C (dose: 200.0 mg/kg/injection, schedule: Q01DX009 (ip), vehicle: other) was 107 % of control.
`Cc1ccc(N=c2scc(-c3ccccc3)n2-c2ccccc2)cc1`: the T/C (dose: 100.0 mg/kg/injection, schedule: Q04DX002 (ip), vehicle: saline with Tween-80) was 102 % of control; the T/C (dose: 200.0 mg/kg/injection, schedule: Q04DX002 (ip), vehicle: saline with Tween-80) was 93 % of control; the T/C (dose: 400.0 mg/kg/injection, schedule: Q04DX002 (ip), vehicle: saline with Tween-80) is 95 % of control.
With `[O-]c1n[n+](Cc2ccc(Cl)cc2)no1`, the T/C reads like this: (dose: 100.0 mg/kg/injection, schedule: Q04DX003 (ip), vehicle: Klucel (hydroxypropylcellulose) (HPC)) 102 % of control; (dose: 200.0 mg/kg/injection, schedule: Q04DX003 (ip), vehicle: Klucel (hydroxypropylcellulose) (HPC)) 119 % of control.
Take `COc1ccc(C2CCCCCC2)c(OC)c1OC`: the T/C is 98 % of control and 108 % of control under setting [4]; 113 % of control under setting [5]; 103 % of control and 105 % of control under setting [6].
As to `Cc1nnc2c3[nH]c4ccccc4c3cnn12`, the T/C (dose: 60.0 mg/kg/injection, schedule: Q01DX005 (ip), vehicle: saline) is 104 % of control; the T/C (dose: 120.0 mg/kg/injection, schedule: Q01DX005 (ip), vehicle: saline) is 95 % of control; the T/C (dose: 240.0 mg/kg/injection, schedule: Q01DX005 (ip), vehicle: saline) is 103 % of control.
Take `O=C1NN2CCCN=C2c2ncccc21`: the T/C by setting is: under setting [11], 104 % of control; under setting [12], 103 % of control; under setting [13], 108 % of control.
As for `CCOC(=O)C1=C(C)O/C(=C/c2ccc(OC)cc2)C1=O`, the T/C runs as follows: under setting [4], 98 % of control; under setting [5], 93 % of control; under setting [6], 100 % of control.
For `CCC[CH2][Sn]1([CH2]CCC)[O]C(=O)CCSCCC(=O)[O]1`, the T/C reads like this: (dose: 1.56 mg/kg/injection, schedule: Q01DX005 (ip), vehicle: saline with Tween-80) 100 % of control and 106 % of control; (dose: 3.12 mg/kg/injection, schedule: Q01DX005 (ip), vehicle: saline with Tween-80) 109 % of control and 115 % of control and 121 % of control; (dose: 6.25 mg/kg/injection, schedule: Q01DX005 (ip), vehicle: saline with Tween-80) 107 % of control.
Take `Cc1ccc2cc3c(ccc4ccccc43)c3c2c1CC3`: the T/C (dose: 25.0 mg/kg/injection, schedule: Q04DX003 (ip), vehicle: saline with Tween-80) was 113 % of control; the T/C (dose: 33.0 mg/kg/injection, schedule: Q01DX009 (ip), vehicle: saline with Tween-80) is 121 % of control; the T/C under setting [7] was 150 % of control; the T/C (dose: 300.0 mg/kg/injection, schedule: Q04DX003 (ip), vehicle: saline with Tween-80) is 152 % of control; the T/C (dose: 400.0 mg/kg/injection, schedule: Q04DX003 (ip), vehicle: saline with Tween-80) was 172 % of control.
As for `O=[N+]([O-])c1ccccc1/C=C\c1ccccn1`, the T/C was 104 % of control (dose: 50.0 mg/kg/injection, schedule: Q01DX005 (ip), vehicle: Klucel (hydroxypropylcellulose) (HPC)); 101 % of control (dose: 100.0 mg/kg/injection, schedule: Q01DX005 (ip), vehicle: Klucel (hydroxypropylcellulose) (HPC)); 101 % of control (dose: 200.0 mg/kg/injection, schedule: Q01DX005 (ip), vehicle: Klucel (hydroxypropylcellulose) (HPC)).
For `O=P(N1CCCCC1)(N1CC1)N1CC1`, the T/C reads like this: (dose: 5.0 mg/kg/injection, schedule: Q04DX003 (ip), vehicle: saline) 108 % of control; (dose: 5.56 mg/kg/injection, schedule: Q01DX009 (ip), vehicle: saline) 195 % of control; (dose: 6.25 mg/kg/injection, schedule: Q01DX009 (ip), vehicle: saline) 163 % of control; (dose: 10.0 mg/kg/injection, schedule: Q04DX003 (ip), vehicle: saline) 120 % of control; (dose: 12.5 mg/kg/injection, schedule: Q01DX009 (ip), vehicle: saline) 227 % of control and 86 % of control; (dose: 20.0 mg/kg/injection, schedule: Q04DX003 (ip), vehicle: saline) 220 % of control. The T/C (dose: 25.0 mg/kg/injection, schedule: Q01DX009 (ip), vehicle: saline) was 90 % of control.
Turning to `Cc1cc(Cl)cc2[s+]snc12`, the T/C under setting [11] is 100 % of control, the T/C under setting [12] was 101 % of control and the T/C under setting [13] was 92 % of control.
With `CC1C(O)[C@@]2(OC[C@@]34C(=O)CC5(O)[C@H](CCC6Cc7nc8c(nc7C[C@]65C)CC5CC[C@@H]6C7=C[C@H]9O[C@@]%10(O[C@@](C)(CO)C[C@@H]%10O)C(C)[C@@]9(O)[C@]7(C)[C@@H](O)CC6[C@]5(C)C8)C3=CC[C@H]4C2C)OC1(C)C` (stereo not given in full), the T/C is, setting by setting: (dose: 10.0 micrograms/kg/injection, schedule: Q01DX005 (ip), vehicle: saline + alcohol) 117 % of control and 121 % of control; (dose: 20.0 micrograms/kg/injection, schedule: Q01DX005 (ip), vehicle: saline + alcohol) 115 % of control and 117 % of control; (dose: 40.0 micrograms/kg/injection, schedule: Q01DX005 (ip), vehicle: saline + alcohol) 123 % of control and 124 % of control; (dose: 40.0 micrograms/kg/injection, schedule: Q01DX009 (ip), vehicle: saline + alcohol) 115 % of control.
With `CCN(CC)CCSC(=O)N1c2ccccc2Sc2ccc(Cl)cc21`, the T/C is, setting by setting: (dose: 3.12 mg/kg/injection, schedule: Q01DX009 (ip), vehicle: saline with Tween-80) 96 % of control; (dose: 6.25 mg/kg/injection, schedule: Q01DX009 (ip), vehicle: saline with Tween-80) 104 % of control and 105 % of control; under setting [8], 96 % of control; under setting [9], 93 % of control; under setting [10], 100 % of control.
On to `NN1C(=O)CS/C1=N\C(=S)N/N=C1/SCC(=O)N1N`, for which the T/C was 94 % of control (dose: 0.04 mg/kg/injection, schedule: Q01DX009 (ip), vehicle: saline); 97 % of control (dose: 0.09 mg/kg/injection, schedule: Q01DX009 (ip), vehicle: saline); 99 % of control (dose: 0.19 mg/kg/injection, schedule: Q01DX009 (ip), vehicle: saline); 98 % of control and 99 % of control (dose: 0.78 mg/kg/injection, schedule: Q01DX009 (ip), vehicle: saline).

Source of the values: PubChem BioAssay AID330 (DTP/NCI, 2004).
